Data from patent US11229680B2, “Autophagy inhibitors” (The Hong Kong University of Science and Technology, priority 2017, dated 2022).
Entries after “also recorded” stand apart in the source; their conditions may differ.

Columns and labels:
[1] = tested on: GABARAP; assay: ITC binding to GABARAP; parameters: species or system human; settings: for selectivity towards GABARAP proteins (in words): GABARAP versus LC3, FIGS. 2E and 4C
[2] = target: LGG-1 (Caenorhabditis elegans, UniProt Q09490); assay: ITC binding to purified LGG-1; parameters: species or system C. elegans
LGG-1, sequence (Q09490 1-116 limits assumed): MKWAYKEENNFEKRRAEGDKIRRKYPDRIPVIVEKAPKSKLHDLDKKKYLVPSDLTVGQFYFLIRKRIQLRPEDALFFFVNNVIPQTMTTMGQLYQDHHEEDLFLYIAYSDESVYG
From the text: (§1) C. elegans provides an ideal platform to study autophagy and especially to investigate roles of different members of Atg8 in autophagy, because worms contain both GABARAP and LC3 subfamily Atg8s and yet simple enough with one gene for each subfamily (worm lgg-1 and lgg-2 are […] of GABARAP and LC3, respectively). It has also been shown earlier on that lgg-1 and lgg-2 act non-redundantly in autophagy (Wu et al., 2015). Prior to performing autophagy assays in worms, we measured the bindings of various AnkB/G LIR peptides to purified LGG-1 and LGG-2 using the same method as we have described for FIGS. 1&3.

[3] = target: T1, LGG-2 (Caenorhabditis elegans, UniProt Q23536); assay: ITC binding to purified LGG-2; parameters: species or system C. elegans
T1 sequence (Q23536 1-130): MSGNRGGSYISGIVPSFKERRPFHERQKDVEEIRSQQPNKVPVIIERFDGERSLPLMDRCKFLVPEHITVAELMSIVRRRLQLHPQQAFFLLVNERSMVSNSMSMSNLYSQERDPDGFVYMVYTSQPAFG
From the text: as §1

[4] = tested on: LC3-positive puncta in COS7 cells; assay: LC3-positive puncta in starved COS7 cells; assay type: cell-based; settings: COS7 cells over-expressing mCherry-tagged peptide, nutrients deprivation
From the text: (§2) We used the well-established cultured COS7 cells for assessing autophagy inhibitions by the AnkB/G LIR peptides over-expressed in the cells. We quantified the numbers of endogenous LC3- or GABARAP-positive puncta, which represent LC3 or GABARAP-containing autophagic structures, as readouts to quantify autophagy inhibitions (Klionsky et al., 2016; Mizushima et al., 2010). After nutrients deprivation, obvious accumulations of LC3- or GABARAP-positive puncta could be observed in cells over-expressing mCherry only, indicating induction of autophagy by starvation (FIG. 6C6&E6). […] In contrast, expression of the mCherry-AnkB WR peptide had no impact on the LC3- or GABARAP-puncta numbers (i.e. with the same puncta numbers as expressing the mCherry vector control; FIG. 6C-F).

[5] = tested on: GABARAP-positive puncta in COS7 cells; assay: GABARAP-positive puncta in starved COS7 cells; assay type: cell-based; settings: COS7 cells over-expressing mCherry-tagged peptide, nutrients deprivation
From the text: as §2

[6] = tested on: p62-positive puncta in COS7 cells; assay: p62-positive puncta in starved COS7 cells; assay type: cell-based; settings: COS7 cells expressing mCherry-tagged peptide, starvation
From the text: We further quantified the level of p62, one of the best studied selective autophagy substrates, to monitor the autophagic flux in COS7 cells expressing various AnkB/G LIR peptides under the starvation condition (Klionsky et al., 2016; Mizushima et al., 2010). Upon autophagy induction, p62 forms aggregates via its LIR motif-mediated interactions to Atg8s and subsequent incorporation into autophagosomes (Bjorkoy et al., 2005; Pankiv et al., 2007). Only a relatively low and steady level of p62 aggregates is formed if autophagy flux is normal (i.e. p62-positive autophagosomes are steadily cleared by fusing with lysosomes; (Bjorkoy et al., 2005)), and this is indeed the case when cells were expressed with the mCherry vector control (FIG. 7F). […] This is consistent with a previous siRNA-based study showing that knockdown of LC3 but not GABARAP causes p62 accumulation in COS7 cells (Maruyama et al., 2014). Taken together, the above cell-based assays reinforce our earlier conclusion derived from biochemical and structural studies, that the AnkB WT peptide can function as potent autophagy inhibitor by targeting all members of the Atg8 family and the AnkG WT or ER peptides can selectively target the GABARAPs and spare the LC3s.

[7] = tested on: SQST-1::GFP; assay: SQST-1::GFP aggregate accumulation in C. elegans expressing the peptides; assay type: in vivo
From the text: We next determined whether the AnkB WT peptide blocks autophagy in C. elegans. Autophagy is required for degradation of a variety of protein substrates, including the C. elegans p62 homolog SQST-1 during development (Tian et al., 2010). In the wild type animals, SQST-1::GFP is weakly expressed and diffusely localized in the cytoplasm, while numerous SQST-1 aggregates accumulate in autophagy mutants (Tian et al., 2010). The AnkB WT peptide fused with the Cherry reporter (Cherry::AnkB WT) or Cherry::AnkB WR was expressed under the control of the nfya-1 promoter, which is expressed ubiquitously from the embryonic to adult stages. The expression plasmids were injected into animals carrying integrated SQST-1::GFP reporter (bpIs151) and transgenic lines were obtained and analyzed.
Similarly, we also tested the blocking effect of AnkG peptides in C. elegans. […] This observation is somewhat different from that in mammalian heterologous cells. This may be explained by the different roles of the two families in different organisms. In mammal, p62 degradation is dependent on LC3 but not GABARAP (Maruyama et al., 2014), so blocking GABARAP binding has minimal effect on p62 degradation. However, in C. elegans, LGG-1 acts upstream to LGG-2 (Manil-Segalen et al., 2014; Wu et al., 2015), so blocking either of them will lead to defect in SQST-1 degradation.
Although a large collection of autophagy mutants were isolated from genetic screens (Tian et al., 2010), assays to inhibit autophagy activity in a spatiotemporal manner are not available. We investigated whether the AnkB peptide can block autophagy in a tissue- and temporal-specific manner. The AnkB peptide was expressed under the control of tissue-specific promoters, including the promoter of myo-3 for body wall muscle cells, y37A1B.5 for hypodermal cells and vha-6 for intestinal cells. The expression constructs were injected into animals carrying the corresponding tissue-specific SQST-1::GFP expression integrated lines.
We also examined whether the AnkB peptide can impair autophagy in a temporal control manner. The expression of AnkB WT was driven by the promoter of col-19, which is expressed in hypodermal cells from the young adult stage onwards.

[8] = tested on: C. elegans; assay: C. elegans hatching and development; assay type: in vivo; settings: Pnfya-1::Cherry fusion
From the text: Autophagy plays critical roles in various physiological processes occurring during development or in adult C. elegans (Zhang et al., 2015). Fewer autophagy mutants develop into larvae. […] 60.8% embryos expressing the AnkB WT peptide hatched, compared to 96.9% of embryos expressing AnkB WR (FIG. 8G). Autophagy mutants also grow slowly. […] Thus, the AnkB WT peptide blocks autophagy during C. elegans development.

[9] = tested on: C. elegans; assay: C. elegans life span; assay type: in vivo
From the text: Autophagy is known to regulate the adult worm aging process. […] The autophagy defect caused by AnkB was weaker than that in autophagy mutants.

[10] = target: LC3s (LC3A, LC3B, LC3C) (Homo sapiens); assay: ITC binding to LC3s
[11] = mCherry::AnkG peptides, embryonic stage (FIG. 10B-D)

E1599R modification of AnkB: AnkB LIR peptide with E1599R modification (VEEEWVIVSDERIEEARQKAPLEITEY; AnkB E1599R human recombinant peptide, prepared in the lab)
selectivity towards GABARAP proteins (in words) [1]: increase in selectivity towards GABARAP proteins

VEEEWVIVSDEEIEEARQKAPLEITEY [AnkB LIR, recombinant peptide from natural human 440 kD AnkB residues 1588-1614]
affinity to GABARAP higher than AnkG LIR ([1]; ITC): about 10 fold | binding to LGG-1 (in words) [2]: binds very strongly | binding to LGG-2 (in words) ([3]; purified LGG-2): binds very strongly | LC3-positive puncta number [4]: reduced the LC3- and GABARAP-puncta to the background level | GABARAP-positive puncta number [5]: reduced the LC3- and GABARAP-puncta to the background level | p62-positive puncta versus mCherry vector control [6]: dramatically increased | SQST-1::GFP aggregates ([7]; Cherry fusion, FIG. 8, embryo): a large number of SQST-1::GFP aggregates accumulated | SQST-1::GFP aggregates ([7]; Cherry fusion, FIG. 8, larvae): a large number of SQST-1::GFP aggregates | SQST-1::GFP aggregates ([7]; Cherry fusion, nfya-1 promoter (ubiquitous), multiple tissues, embryonic to adult stages): accumulated a large number of SQST-1::GFP aggregates | SQST-1::GFP aggregates ([7]; col-19 promoter (hypodermal cells from young adult stage onwards), adult): adult-specific accumulation of SQST-1::GFP aggregates | SQST-1::GFP aggregates ([7]; col-19 promoter, embryonic to L4 larval stages (no peptide expression yet), listed as AnkB WT): no aggregates were found; also recorded: no SQST-1::GFP aggregates | SQST-1::GFP aggregates ([7]; mCherry fusion, hypodermal cells, embryo (FIG. 9)): a large number of SQST-1::GFP aggregates accumulate | SQST-1::GFP aggregates ([7]; mCherry fusion, hypodermis, L4 larvae (FIG. 9)): a large number of SQST-1::GFP aggregates accumulate | SQST-1::GFP aggregates ([7]; myo-3 promoter, muscle cells, L4 larvae): SQST-1::GFP aggregates accumulate | dependence of SQST-1::GFP aggregates on peptide expression level ([7]; myo-3 promoter, muscle cells, L4 larvae (FIG. 10W-Y), listed as AnkB WT): correlate with the degree of autophagy inhibition; also recorded: increases with increasing expression | SQST-1::GFP aggregates ([7]; myo-3 promoter, muscle, embryo): a large number of SQST-1::GFP aggregates accumulate | SQST-1::GFP aggregates ([7]; tissue-specific promoters myo-3, y37A1B.5, vha-6, embryonic to adult stages): a large number of SQST-1::GFP aggregates accumulated | SQST-1::GFP aggregates ([7]; vha-6 promoter, intestine cells, embryo): SQST-1::GFP aggregates accumulate | SQST-1::GFP aggregates ([7]; vha-6 promoter, intestine cells, larvae (FIG. 10S, 10T)): SQST-1::GFP aggregates accumulate | additional time for embryos to develop into L1 larvae compared to AnkB WR [8]: approximately two more hours | additional time to develop into young adults compared to AnkB WR [8]: ~6 h | embryos hatched (hatch rate) [8]: 60.8% | Median lifespan ([9]; Pmyo-3::ch:: fusion (muscle)): 18.12 days | life span compared to animals expressing Cherry::AnkB WR ([9]; Pnfya-1::Cherry fusion): dramatically shortened the life span | Median lifespan ([9]; Pnfya-1::ch:: fusion (ubiquitous)): 16.32 days | Median lifespan ([9]; Pvha-6::ch:: fusion (intestine)): 18.87 days | Median lifespan ([9]; Py37a1b.5::ch:: fusion (hypodermal cells)): 16.64 days | mean life span ([9]; expressed in hypodermal cells): slightly reduced the mean life span | life span compared to animals expressing Cherry::AnkB WR ([9]; expressed in muscle cells and intestinal cells): did not significantly reduce the life span

AnkG LIR C-helix alone: AnkG LIR C-helix alone (aa 1993-2010) (SSEEIREARQQAAASQSP; UniProt Q12955 1993-2010, looked up, fragment)
binding to GABARAP (in words) ([1]; ITC): no detectable binding

AnkG W1989R: AnkG LIR with Trp1989 substituted by Arg; negative and specificity control (PEDDRTEFSSEEIREARQAAASHAPS; AnkG W1989R rat recombinant peptide, prepared in the lab)
binding to GABARAP (in words) ([1]; ITC): dramatic weakening | binding to LC3 (in words) [10]: dramatic weakening | LC3-positive puncta number [4]: did not see any noticeable changes | GABARAP-positive puncta number [5]: did not see any noticeable changes | p62-positive puncta versus mCherry vector control [6]: neither of the AnkB/G WR peptides could induce p62-positive puncta increase | SQST-1::GFP aggregates [7, 11]: no SQST-1::GFP aggregates

PEDDWTRFSSEEIREARQAAASHAPS (AnkG E1991R rat recombinant peptide, prepared in the lab) [modified from rat 480 kD AnkG residues 1985-2010]
selectivity towards GABARAP proteins (in words) [1]: increase in selectivity towards GABARAP proteins | binding to GABARAP (in words) ([1]; ITC): slightly weaker affinity | binding to LGG-1 (in words) [2]: retained strong binding | weaker affinity towards LGG-2 than LGG-1 [3]: ~1,000 fold | LC3-positive puncta number [4]: essentially no impact | GABARAP-positive puncta number [5]: potently inhibited | p62-positive puncta versus mCherry vector control [6]: no statistically significant increase | SQST-1::GFP aggregates ([7]; Cherry fusion, hyp7 promoter, epidermis, embryonic to adult stages): caused accumulation of SQST-1::GFP aggregates | SQST-1::GFP aggregates ([7]; Phyp7::mCherry::AnkG peptides, hypodermis, L4 larvae): a large number of SQST-1::GFP aggregates accumulate | SQST-1::GFP aggregates [7, 11]: accumulation of SQST-1::GFP aggregates

E1996R modification of AnkG: AnkG LIR peptide with E1996R modification (PEDDWTEFSSERIREARQAAASHAPS; AnkG E1996R rat recombinant peptide, prepared in the lab)
selectivity towards GABARAP proteins (in words) [1]: increase in selectivity towards GABARAP proteins
